Experimental data: patent publication US11654145B2, “Combination therapy involving diaryl macrocyclic compounds” (TURNING POINT THERAPEUTICS, INC., priority 2019, dated 2023)
Where two headings read alike, the source gives them in different places.

Assays:
Assay type in all cases: cell-based, Human
[1] = system: H358 cells (KRAS G12C); test: Cell viability assay (CellTiter-Glo), H358; details: 72 hours, read-out: IC50s, cell proliferation
Method: (§1) Human NSCLC cell lines H358, H23, H2122, H1373 and H1792, harboring KRAS G12C mutation, were purchased from the American Type Culture Collection (ATCC).
(§2) Two thousand cells per well were seeded in 96 or 384 well white plate, and then treated with indicated compounds for 72 hours (37° C., 5% CO2). Cell proliferation was measured using CellTiter-Glo luciferase-based ATP detection assay (Promega) following the manufactures's protocol. IC50 determinations were performed using GraphPad Prism software (GraphPad, Inc., San Diego, Calif.).

[2] = system: H2122 cells (KRAS G12C); test: Cell viability assay (CellTiter-Glo), H2122; details: 72 hours, read-out: IC50s, cell proliferation
Method: as §1, §2

[3] = system: H2122 NSCLC cells; test: H2122 NSCLC KRAS G12C 2D assay (combination matrix, BLISS independence analysis); details: 96 hours; for BLISS Synergy Score: H2122
Method: One 96-well plate was seeded with 2000 cells/well in a total volume of 80 μl of RPMI supplemented with 10% fetal bovine serum (FBS). […] The cells were incubated for 96 hours at 37 C in 5% CO2. Subsequently, 36 μl of Cell-Titer Glo reagent (Promega) was added to each well and the plates were incubated for 10 min at 37 C. Luminescence was quantitated using a Synergy H1 microplate plate reader (Biotek) according to the manufacturer's instructions. Synergy was assessed by BLISS independence analysis on the Synergyfinder website (Ianevski A, He L, Aittokallio T, Tang J. SynergyFinder: a web application for analyzing drug combination dose-response matrix data. Bioinformatics. 2017 Aug. 1; 33(15):2413-2415).

[4] = system: phosphorylated STAT3, FAK, SRC, ERK, AKT, S6 in H358 KRAS G12C NSCLC cells; test: Immunoblotting for cellular kinase phosphorylation, H358; details: Compound 1 1 μM; for phospho-AKT (pAKT): ARS1620 1 μM
Method: (§3) Half a million cells per well were seeded in 6 well or 24 well plate for 24 hrs, and then treated with compounds for 4, 24 or 48 hours. Cells were collected after treatment and lysed in RIPA buffer (50 mM Tris, pH 7.4, 150 mM NaCl, 1% NP-40, 0.5% Deoxycholate, 0.1% SDS) supplemented with 10 mM EDTA, IX Halt protease and phosphatase inhibitors (Thermo Scientific). Protein lysates (approximately 20 μg) was resolved on 4-12% Bolt Bis-Tris precasted gels with MES running buffer (Life Technologies), transferred to nitrocellulose membranes using Trans-Blot Turbo Transfer System (Bio-Rad) and detected with antibodies targeting phosphorylated STAT3, FAK, SRC, HER2, AKT, ERK, S6 (Cell Signaling Technology), total STAT3, FAK, SRC, HER2, AKT, S6 ERK and cleaved caspase 3 (Cell Signaling Technology). […] Membranes were incubated with chemiluminescent substrate for 5 min at room temperature (SuperSignal West Femto, Thermo Scientific). The chemiluminescent images were acquired with a C-DiGit Imaging System (LI-COR Biosciences).

[5] = system: phosphorylated STAT3, FAK, SRC, HER2, ERK, AKT, S6 and cleaved caspase-3 in H2122 KRAS G12C NSCLC cells; test: Immunoblotting for cellular kinase phosphorylation, H2122; details: Compound 1 1 μM, MRTX849 100 nM, ARS1620, 4, 24 and 48 h
Method: as §3

[6] = KRAS G12C inhibitor in combination with Compound 1 (1 μM)
[7] = AMG510 100 nM, ARS1620 1 μM, 4, 24 and 48 h

| Molecule | IC50 [1, 6] | IC50 ([1]; single agent) | IC50 [2, 6] | IC50 ([2]; single agent) | BLISS Synergy Score ([3]; KRAS inhibitor 41 nM with Compound 1 1000 nM) | BLISS Synergy Score ([3]; KRAS inhibitor 123 nM with Compound 1 1000 nM) | synergy with Compound 1 in the in vitro combination screen ([3]; H2122 cells) | IC50 ([1]; Homo sapiens, NCI-H358, single agent) | IC50 ([2]; Homo sapiens, NCI-H2122, single agent) | phospho-AKT (pAKT) ([4]; 48 hours of treatment, AMG510 100 nM) | phospho-FAK (pFAK) protein levels [4, 7] | phospho-STAT3 (pSTAT3) protein levels [4, 7] | phospho-SRC (pSRC) protein levels ([4]; ARS1620 1 μM, 4, 24 and 48 h) | phospho-AKT (pAKT) ([4]; treatments up to 24 hours, AMG510 100 nM) | phospho-AKT (pAKT) [5] | phospho-ERK (pERK) [5] | phospho-FAK (pFAK) protein levels [5] | phospho-SRC (pSRC) protein levels [5] | phospho-STAT3 (pSTAT3) protein levels [5] |
| --- | --- | --- | --- | --- | --- | --- | --- | --- | --- | --- | --- | --- | --- | --- | --- | --- | --- | --- | --- |
| MRTX849 | 11 nM | 75 nM | 42 nM | 182 nM | 7 | 12 | synergy | – | – | – | – | – | – | – | – | – | – | – | – |
| C=CC(=O)N1CCN(c2ncnc3c(F)c(-c4c(O)cccc4F)c(Cl)cc23)CC1 [ARS-1620] | 88 nM | – | 52 nM | – | – | – | – | 488 nM | 1290 nM | increased | did not suppress | did not suppress | did not suppress | suppressed | suppressed | suppressed pERK at 4 and 24 hours | did not suppress | did not suppress | did not suppress |
